Entries after “also recorded” stand apart in the source; their conditions may differ. *1 amine or outer side, *2 acyl side, *3 side chain or, on linkers, in order; H or OH if unused. Where a SMILES comes first, the peptide text is derived from it. Where no end group is shown, it is not given here. [ ]: non-standard residue; d: D form. ξ: configuration not given here. X1 = O=C(C1C[C@H](O)CN1[*:1])[*:2]; Hyp = O=C(O)[C@@H]1C[C@@H](O)CN1; ξY = NC(Cc1ccc(O)cc1)C(=O)O; ξP = O=C(O)C1CCCN1; ξA = CC(N)C(=O)O

For series [1] the following is noted: cited from earlier work.
Series [2] relates to HeLa-Control cells. Briefly: Cy5.5-Cx43SP1 cells binding and blocking experiment, control cells. It is filed as cell-based. The settings on record: for binding / uptake of probe by control HeLa cells: Cy5.5-Cx43SP1 500 nmol/L, HeLa without Cx43 transfection. The text has this: (§1) 1) Establishment of a Cx43 highly expressing cell line: Cervical cancer HeLa cells were transfected by Cx43 gene, and cervical cancer tumor cell lines HeLa-Cx43 overexpressing Cx43 was successfully prepared. Non-transgenic HeLa cells (without C43 expression) were used as control.
(§2) 2) Cy5.5-Cx43SP1 cells binding and blocking experiment: HeLa-Cx43 cells and the control group HeLa-Control cells were applied onto a 12-well plate in an amount of 0.5×10^6/well one day prior to experiment, and were classified into four groups: Group A: HeLa-Cx43 cells group, Group B: HeLa-Control cells group, Group C: HeLa-Cx43 cells blocking group, Group D: HeLa-Control cells blocking group. Each group comprises 3 wells and the experiment was repeated for 3 times. Into each well was added Cy5.5-Cx43SP1 with a concentration of 500 nmol/L and an amount of 1 ml. Unlabeled Cx43SP1 was added into blocking groups with a concentration of 5 μmol/L.

In a further series the test system is HeLa tumor. In words: Optical tumor imaging of nude mice bearing tumor, control xenograft. It is filed as in vivo, nude mouse. The settings on record: near-infrared fluorescent imaging, 1 h after tail vein injection. How it is done:
(§3) HeLa-Cx43 cells overexpressing Cx43 were used to establish a subcutaneous xenograft model in nude mouse (FIG. 9, left), and the conventional subcutaneous xenograft model of HeLa cells without transfection of Cx43 were used as control group (FIG. 9, right). In vivo Cy5.5-Cx43SP1 near-infrared fluorescent imaging of tumor was carried out.

For another series, the system named is myocardial gap junctions. Briefly: Fluorescence microscopy of frozen tissue sections after tail vein injection of the probe. It is filed as in vivo. The settings on record: 1 h after tail vein injection. The text has this: Meanwhile, frozen sections of tissue were further prepared and imaged under a fluorescence microscope. By using muscle as a control (FIGS. 3-a, 3-b, and 3-c), the distribution profile of the probe Cy5.5-Cx43SP in heart was observed under a fluorescence microscope.

The nature of series [3]: Biological distribution of Cy5.5-Cx43SP in normal mice, ex vivo near-infrared fluorescent imaging of main organs. The settings on record: mouse. The method, then:
1 hour after injection of Cy5.5-Cx43SP, the mice were sacrificed, and their organs were taken out to perform ex vivo near-infrared fluorescent imaging of main organs. […] Especially, the relatively high uptake by heart is highly consistent with the fact that normal heart express relatively high Cx43 (FIG. 6).

Series [4] deals with HeLa-Cx43 tumor overexpressing Cx43. In words: Optical tumor imaging of nude mice bearing tumor. The class given is in vivo, nude mouse. The settings on record: near-infrared fluorescent imaging, 1 h after tail vein injection. The method, then:
as §3

The test system of series [5] is HeLa-Cx43 cells. In words: Cy5.5-Cx43SP1 cells binding and blocking experiment. It is filed as cell-based. The settings on record: for binding / uptake of probe by HeLa-Cx43 cells: Cy5.5-Cx43SP1 500 nmol/L, fluorescence microscopy.
Excerpt: as §1, §2

The subject of series [6] is HeLa-Control cells. Briefly: ^64Cu-NODA-Cx43SP1 cells binding and blocking experiment, control cells. It is filed as cell-based. The settings on record: 3.2 μCi/well, HeLa without Cx43 transfection.
Excerpt: as §1
(§4) HeLa-Cx43 cells and control group HeLa-Control cells were applied onto a 12-well plate in an amount of 0.5×10^6/well one day prior to experiment, and were classified into four groups: Group A: HeLa-Cx43 cells group, Group B: HeLa-Control cells group, Group C: HeLa-Cx43 cells blocking group, Group D: HeLa-Control cells blocking group. Each group comprises 3 wells, and the experiment was repeated for 3 times. Into each well was added ^64Cu-NODA-Cx43SP1 with a concentration of 3.2 μCi/well and an amount of 1 ml. Unlabeled NODA-Cx43SP1 was added into the blocking groups with a concentration of 50 μg/well (10 times of ^64Cu-NODA-Cx43SP1).

For series [7], the system named is HeLa-Cx43 cells. Briefly: ^64Cu-NODA-Cx43SP1 cells binding and blocking experiment. It is filed as cell-based.
Excerpt: as §1, §4

With `CC(NC(=O)CN)C(=O)NCC(=O)N1C[C@@H](O)CC1C(=O)N1CCCC1C(=O)NC(Cc1ccc(O)cc1)C(N)=O` (stereo partly drawn) [AAP10, Gly-Ala-Pro-Gly-4 Hyp-Pro-Tyr] (H-G[ξA]G[X1][ξP][ξY]-NH2), the stability in plasma entry in series [1] is listed as “not stable in plasma”.
For “Cy5.5-Cx43SP1: Cx43SP1 labeled with near-infrared fluorescent dye Cy5.5 via Cy5.5-NHS (GAPG[Hyp]PY; also: Cy5.5 coupled via Cy5.5-NHS, site not given here)”, the “binding / uptake of probe by control HeLa cells” value with HeLa-Control cells [2] is “no binding”; in the series on HeLa-Control cells [2] (listed as Cy5.5-Cx43SP), “not uptaken”. Also, the “uptake by control HeLa cells after blocking” value in the series on HeLa-Control cells [2] (blocking with excess unlabeled Cx43SP) is given as “still do not uptake”. For the same compound, the “gathering of probe at control HeLa tumor” value with HeLa tumor is on record as “no obvious gather; also recorded: not concentrated at the HeLa tumor site”. The “gathering of probe in muscular tissue (control)” value in the series on myocardial gap junctions (frozen section of muscle) is recorded as “not gathered in the muscular tissue”. Moreover, the “gathering of probe in myocardial tissue” value in the series with myocardial gap junctions (frozen section of myocardium) is on record as “gathered in the myocardial tissue in large amount”. Moreover, the “location of probe within myocardium” value in the series on myocardial gap junctions (frozen section of myocardium) is “mainly distributed at the location of gap junctions between myocardial cells”. In addition, the excretion route entry in [3] (1 h after injection) is “mainly excreted through liver and intestinal tract, and partly through kidney and urinary system; also recorded: mostly excreted via liver and intestinal tract”. Also, the “organ distribution of probe” value in [3] (1 h after tail vein injection, ex vivo organs) is “mainly distributed in heart, liver, gastrointestinal tract; also recorded: significantly gathered in the heart, stomach, liver, gall bladder and intestinal tract”. Also, the “gathering of probe at HeLa-Cx43 tumor” value in [4] is recorded as “gathered in the location of HeLa-Cx43 tumor overexpressing Cx43 in high concentration; also recorded: gathered at tumor site of HeLa-Cx43 overexpressing Cx43 in large amount”. The results for the “binding / uptake of probe by HeLa-Cx43 cells” value in the series on HeLa-Cx43 cells [5] and in the series on HeLa-Cx43 cells [5] (listed as Cy5.5-Cx43SP) were “significant specific binding” and “uptake a large amount”, respectively. Besides, the “binding / uptake by HeLa-Cx43 cells after blocking” value with HeLa-Cx43 cells [5] (blocking with excess unlabeled Cx43SP 5 μmol/L) was “substantially reduced; also recorded: decreases significantly”.
Take “^64Cu-NODA-Cx43SP1: NODA-modified Cx43SP1 labeled with ^64Cu, PET probe (GAPG[Hyp]PY; also: NODA chelator carrying 64Cu, site not given here)”: the “binding of probe to control HeLa cells” value in the series with HeLa-Control cells [6] was “no binding”. For the same compound, the “binding of probe to HeLa-Cx43 cells” value with HeLa-Cx43 cells [7] (3.2 μCi/well) is “significant specific binding”. For the same compound, the “binding to HeLa-Cx43 in the blocking experiment” value in the series on HeLa-Cx43 cells [7] (unlabeled NODA-Cx43SP1 50 μg/well) is listed as “substantially reduced”.

Source of the values: US9764048B2, “Targeted molecular imaging probe and method for in vivo molecular imaging” (priority 2012, dated 2017).
